The text below walks through data of patent publication US20260232578A1, “COMPOSITIONS AND METHODS FOR TRANSMUCOSAL ABSORPTION” (Tonix Pharma Limited, priority 2012, published 2026).

The target in data set [1] is muscarinic M2 receptor (Homo sapiens, UniProt P08172). The data set is described as follows: G-protein-dependent signal transduction, intracellular Ca2+ mobilization. A general note: Calcium flux is commonly read through the fluorescence of an indicator in the cells.
Data set [2] can be described thus: Pharmacokinetics of sublingual cyclobenzaprine HCl tablets with and without K2HPO4 (Example 10). The format is in vivo, beagle dog. To be noted: 2.4 mg sublingual tablet with basifying agent. On the procedure:
Pharmacokinetic parameters were then calculated and compared.
For sublingual dosing, dogs were given propofol and were put in a lying position (ventral decubitis). The mouth was gently opened and the tablet was placed under the tongue. The tongue was then immediately replaced in its initial position and the mouth was closed. The dog was left in the same position until waking. […] After the washout period of two weeks, dogs were sedated in the same way and given a single sublingual dose of the formulation without basifying agent. Blood samples after both types of treatment were taken pre-dose and at 5, 10, 20, 30, and 45 minutes, and at 1, 2, 3, 4, 6, 8, and 10 hours after dose administration. Blood was taken from the jugular vein.
The method involved liquid-liquid extraction with hexane. The extracts were injected using an HPLC system and an API4000® (Applied Biosystems) for MS/MS detection, with an “Onyx monolithic Phenomenex C18 100×3.0 mm” column.
Sublingual administration was performed by placing the control tablet or tablet with K2HPO4 under the tongue when female beagles were slightly anesthetized with propofol.

For data set [3] the following is noted: humans, cited from earlier work.
A short description of data set [4]: in vivo. The note with it: female, beagle, dog; for AUC(0-t) / AUC(0-inf): 1.79 mg; for AUC(0-t): AUC0-24 h; for AUC(0-inf): AUC0-∞h. On the procedure:
The protocol was designed as outlined in Table 23.
The method requires a lithium heparinized plasma sample volume of 200 μl. The extraction is a liquid liquid extraction with hexane, and the extracts are injected using an HPLC system and an […] (Applied Biosystems) for the MS/MS detection, with a “Onyx monolithic Phenomenex C18 100×3.0 mm” column.
Concentrations of the samples are calculated using Watson® 7.2.0.03 directly from chromatograms after automatic integration by Analyst® 1.5.1 and expressed as ng/mL. Mean plasma concentrations will be calculated (when calculable, i.e. n>2) using individual concentrations and will be expressed with the corresponding standard deviation value and variation coefficients (when calculable, i.e. n>3) (with CV(%)=(SD/mean)×100). The individual plasma concentrations are tabulated for each dog and scheduled sampling time. Concentrations below the LLOQ are designated as “BLQ.” All BLQ concentrations are substituted by zero for calculation of the descriptive statistics of the concentrations.
Pharmacokinetic analysis is carried out using […]® (Version 4.3 (Thermo Electron Corporation)). An independent model (non compartmental analysis) is used. All BLQ values in the absorption phase are substituted by zero, except for BLQ values between evaluable concentrations, which are treated as missing values, before the calculation of the pharmacokinetic variables. The terminal BLQ values are ignored. The following pharmacokinetic parameters are calculated:
5 non-naive female dogs are used, each dog receiving the test substance by oral administration via nasogastric tube to the stomach (NG) administration, sublingual administration (SL), and by intravenous (IV) administration. There is a “wash-out” period of at least two weeks between each type of administration. Blood samples are drawn as follows:
A single NG dose of 0.14 mg/kg (under a volume of 5 ml/kg and a solution concentration of 0.028 mg/mL) is administered.
After a wash-out period of at least 2 weeks, dogs are sedated using propofol (6.5 mg/kg IV). They will be then given a single sublingual dose of 0.14 mg/kg (under a volume of 0.056 mL/kg and a solution concentration of 2.5 mg/mL).
After a wash-out period of at least 2 weeks, dogs are given a single IV dose of 0.14 mg/kg (under a volume of 1 mL/kg, bolus of approximately 30 sec, and a solution concentration of 0.14 mg/mL).
Blood sampling was designed to minimize animal suffering and to ensure the quality of the biological samples, and was adapted from basic procedures commonly used in studies performed in dogs. Serial blood samples (1 tube of approximately 5 mL) are collected from a jugular vein using vacuum tubes containing lithium heparin. After sealing each tube, the blood samples are manually agitated and stored on ice until centrifugation (within 30 minutes of sampling). The samples are centrifuged at 1500 g, at 4° C., for 10 minutes. The entire resultant plasma obtained from each tube is immediately transferred to suitably labeled polypropylene tubes (3 aliquots of plasma of at least 500 μl each), which are stored upright at approximately −80° C. and protected from light until bioanalysis.
The dogs are fasted overnight before each administration, and food is given to the dogs 4 hours after each treatment. […] In each of the three routes, a potassium phosphate buffer (pH 7.4) is used as the vehicle.
As referred to in Example 4, a study was designed in order to assess the effects of the compositions and methods of the invention. […] The pharmacokinetic parameters were then calculated. A summary of the study design is as follows:
Blood was collected in a fasted condition for all three routes of administration. […] Briefly, the method involved liquid-liquid extraction with hexane. The extracts were injected using an HPLC system and an API4000® (Applied Biosystems) for the MS/MS detection, with an “Onyx monolithic Phenomenex C18 100×3.0 mm” column.

The conditions of data set [5]: humans, cited from earlier work. This is another data set of the same source.
The nature of data set [6]: in vivo. The note with it: beagle, dog. As to the method: Each dog was sampled at pre-dose before and after Propofol (when possible) and at 5, 10 and 20 minutes post-dose.
The conditions of data set [7]: cited from earlier work.
[8] abbreviates: 2.5 mg immediate release tablets (Winchell).
The mark [9] stands for this setting: 5.0 mg immediate release tablets (Winchell).
Setting [10] is: 10 mg immediate release tablets (Winchell).

Structures are written as SMILES. Like-named read-outs stand apart in the source and are kept apart here.

Sequence of muscarinic M2 receptor (P08172 whole entry): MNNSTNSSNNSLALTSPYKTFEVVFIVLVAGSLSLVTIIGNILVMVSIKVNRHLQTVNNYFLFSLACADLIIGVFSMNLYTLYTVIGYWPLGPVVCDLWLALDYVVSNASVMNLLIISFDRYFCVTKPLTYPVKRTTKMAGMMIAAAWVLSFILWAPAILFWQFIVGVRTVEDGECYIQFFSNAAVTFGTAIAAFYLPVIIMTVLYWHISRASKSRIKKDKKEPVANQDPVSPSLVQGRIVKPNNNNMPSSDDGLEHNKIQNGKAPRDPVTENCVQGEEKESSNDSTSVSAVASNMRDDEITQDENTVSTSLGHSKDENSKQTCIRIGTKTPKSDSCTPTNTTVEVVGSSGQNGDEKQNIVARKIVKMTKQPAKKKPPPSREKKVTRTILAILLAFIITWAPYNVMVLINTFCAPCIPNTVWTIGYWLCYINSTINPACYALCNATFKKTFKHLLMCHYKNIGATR

A word on the IC50: it is the concentration that inhibits the measured activity by half. Read a high IC50 as a need for much substance. Consider `CNCCC=C1c2ccccc2C=Cc2ccccc21` [norcyclobenzaprine, 3-(5H-dibenzo[a,d]cyclohepten-5-ylidene)-N-methyl-1-propanamine], for which the IC50 in data set [1] came out at 33 nM. That is a double-digit nanomolar value.
Broadly, the AUC(0-t) is the area under the concentration-time curve up to a stated or last time point. Read a high AUC(0-t) as high exposure. What is called AUC(0-inf) is total exposure, with the tail of the curve extrapolated. As a reminder, the bioavailability is dose-corrected exposure relative to a reference, in per cent. `CN(C)CCC=C1c2ccccc2C=Cc2ccccc21` [cyclobenzaprine, 3-(5H-dibenzo[a,d]cyclohepten-5-ylidene)-N,N-dimethyl-1-propanamine] showed a dbmnAUC0-0.75 h in data set [2] (Beagles 12.5 kg) of 0.000708 kg·h/mL. In data set [2] (Beagles), the dnAUC0-0.75 h came to 5.65e-05 h/mL. The “upper limit for the half-life of the first phase (distribution out of plasma)” value in data set [3] (IV bolus) is 3 to 5 min. Further, the “amount in plasma as % of the theoretical initial concentration (Cinit)” value in data set [3] (within 3 to 30 minutes after IV bolus) is reported as “less than 5%”. Also, the “increase in bioavailability, sublingual vs PO” value in data set [4] is ~77 fold. Also, the results for the AUC(0-t) in data set [4] and in data set [4] (iv) were 127 ± 37.1 ng·h/mL and 43.5 ± 3.77 ng·h/mL, respectively. Also, the total exposure AUC(0-inf) in data set [4] amounted to 129 ± 36.4 ng·h/mL; in data set [4] (iv), 44.9 ± 4.15 ng·h/mL. Further, the bioavailability in data set [4] (bioavailability, conclusion) was ~100%. The molecule further came in with a concentration at 0.5 h in data set [4] (iv, 0.14 mg/kg, plasma level) of 52.3 ng/mL. This molecule gave a concentration at 6 h in data set [4] (iv, 0.14 mg/kg, plasma level) of 3.4 ng/mL. Besides, the AUC0-8 h in data set [5] (setting [8]) was 11.1 ng·h/mL; in data set [5] (setting [9]), 23.0 ng·h/mL; in data set [5] (setting [10]) it was 45.9 ng·h/mL. In addition, the “AUC0-∞h” value in data set [5] (setting [8]) is 44.2 ng·h/mL; in data set [5] (setting [9]), 89.5 ng·h/mL; in data set [5] (setting [10]), 178.2 ng·h/mL. The “bioavailability, sublingual vs IV calculated in the same condition” value in data set [6] is on record as “about 200%”. Also, the “plasma level (radioactive equivalents)” value in data set [7] (Beagles, 1.76 mg/kg by mouth, 1 hr (Hucker)) is 1.14 μg/ml [equivalent]; in data set [7] (Beagles, 1.76 mg/kg by mouth, 2 hr (Hucker)), 1.46 μg/ml [equivalent]; in data set [7] (Beagles, 1.76 mg/kg by mouth, 4 hr (Hucker)) it was 0.92 μg/ml [equivalent]; in data set [7] (Beagles, 1.76 mg/kg by mouth, 6 hr (Hucker)) it was 0.58 μg/ml [equivalent]; in data set [7] (Beagles, 1.76 mg/kg by mouth, 24 hr (Hucker)) it was 0.10 μg/ml [equivalent]; in data set [7] (Beagles, 1.76 mg/kg cyclobenzaprine HCl by mouth, 0.5 h (Hucker)) it was 0.72 μg/ml [equivalent]. The “plasma level (radioactive equivalents)” value in data set [7] (dogs, 2 mg/kg intravenous in saline, 0.5 h (Hucker)) was 0.43 μg/ml [equivalent]; in data set [7] (dogs, 2 mg/kg intravenous in saline, 1 hr (Hucker)), 0.53 μg/ml [equivalent]; in data set [7] (dogs, 2 mg/kg intravenous in saline, 2 hr (Hucker)), 0.60 μg/ml [equivalent]; in data set [7] (dogs, 2 mg/kg intravenous in saline, 4 hr (Hucker)), 0.55 μg/ml [equivalent]; in data set [7] (dogs, 2 mg/kg intravenous in saline, 6 hr (Hucker)) it was 0.45 μg/ml [equivalent]; in data set [7] (dogs, 2 mg/kg intravenous in saline, 24 hr (Hucker)) it was 0.12 μg/ml [equivalent]. The “plasma level, Hucker dose adjusted for 0.14 mg/kg” value was 34.1 ng/mL in data set [7] (IV (saline), t 0.5 h); 42.1 ng/mL in data set [7] (IV (saline), t 1 h); 47.6 ng/mL in data set [7] (IV (saline), t 2 h); 43.7 ng/mL in data set [7] (IV (saline), t 4 h); 35.7 ng/mL in data set [7] (IV (saline), t 6 h); 9.5 ng/mL in data set [7] (IV (saline), t 24 h). For the same molecule, the “plasma level, Hucker dose adjusted for 0.14 mg/kg” value in data set [7] (PO (gelatin capsule), t 0.5 h) was 57.1 ng/mL; in data set [7] (PO (gelatin capsule), t 1 h) it was 90.5 ng/mL; in data set [7] (PO (gelatin capsule), t 2 h), 115.9 ng/mL; in data set [7] (PO (gelatin capsule), t 4 h), 73.0 ng/mL; in data set [7] (PO (gelatin capsule), t 6 h) it was 46.0 ng/mL; in data set [7] (PO (gelatin capsule), t 24 h), 7.9 ng/mL.
